# Experimental data published in paper PMC11053447, “Human ABC and SLC Transporters: The Culprit Responsible for Unspecific PSMA-617 Uptake?” (Pharmaceuticals, 2024).
# Assays:
# [1] = biological target: T1, human OAT1 (Homo sapiens, UniProt Q4U2R8); experiment: SLC transporter substrate assay, HEK293-OAT1-LV vs control HEK293-Mock-B-LV cells; conditions: 20 min
# T1 sequence (Q4U2R8 1-563): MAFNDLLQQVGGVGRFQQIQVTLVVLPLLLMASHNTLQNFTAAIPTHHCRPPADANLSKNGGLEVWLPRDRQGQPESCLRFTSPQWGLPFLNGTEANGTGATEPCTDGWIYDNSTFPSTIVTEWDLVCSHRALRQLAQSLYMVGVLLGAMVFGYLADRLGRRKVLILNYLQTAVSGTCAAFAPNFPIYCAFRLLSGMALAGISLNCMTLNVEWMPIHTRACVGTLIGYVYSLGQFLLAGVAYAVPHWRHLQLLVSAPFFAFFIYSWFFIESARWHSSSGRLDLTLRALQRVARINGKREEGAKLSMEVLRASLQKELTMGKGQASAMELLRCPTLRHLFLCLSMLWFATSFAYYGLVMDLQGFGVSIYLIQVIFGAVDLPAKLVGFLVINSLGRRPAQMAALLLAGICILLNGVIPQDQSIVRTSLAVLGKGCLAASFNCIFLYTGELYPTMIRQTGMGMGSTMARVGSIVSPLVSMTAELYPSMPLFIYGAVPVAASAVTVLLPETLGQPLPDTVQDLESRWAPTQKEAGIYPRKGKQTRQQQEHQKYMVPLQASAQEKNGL
# [2] = biological target: T2, human OAT4 (Homo sapiens, UniProt Q9NSA0); experiment: SLC transporter substrate assay, HEK293-OAT4-LV vs control HEK293-Mock-LV cells; conditions: 20 min
# T2 sequence (Q9NSA0 1-550): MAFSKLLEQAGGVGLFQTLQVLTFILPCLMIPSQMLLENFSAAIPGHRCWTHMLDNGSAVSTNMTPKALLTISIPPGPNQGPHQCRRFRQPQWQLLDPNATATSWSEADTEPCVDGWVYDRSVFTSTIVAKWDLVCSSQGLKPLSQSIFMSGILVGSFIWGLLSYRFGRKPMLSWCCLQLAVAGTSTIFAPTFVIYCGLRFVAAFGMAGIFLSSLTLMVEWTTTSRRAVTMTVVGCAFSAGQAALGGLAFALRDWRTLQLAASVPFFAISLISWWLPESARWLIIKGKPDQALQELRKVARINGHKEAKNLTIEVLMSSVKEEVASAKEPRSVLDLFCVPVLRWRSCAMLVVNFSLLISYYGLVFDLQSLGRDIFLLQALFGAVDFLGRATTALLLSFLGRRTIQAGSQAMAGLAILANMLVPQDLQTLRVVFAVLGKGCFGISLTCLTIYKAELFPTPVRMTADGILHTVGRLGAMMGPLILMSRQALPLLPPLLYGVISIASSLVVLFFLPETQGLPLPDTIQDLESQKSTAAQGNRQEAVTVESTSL
# [3] = biological target: T3, human OCT3 (Homo sapiens, UniProt O75751); experiment: SLC transporter substrate assay, HEK293-OCT3-LV vs control HEK293-Mock-LV cells; format: in vitro ADME
# T3 construct: host or cells: HEK293-OCT3-LV
# T3 sequence (O75751 1-556): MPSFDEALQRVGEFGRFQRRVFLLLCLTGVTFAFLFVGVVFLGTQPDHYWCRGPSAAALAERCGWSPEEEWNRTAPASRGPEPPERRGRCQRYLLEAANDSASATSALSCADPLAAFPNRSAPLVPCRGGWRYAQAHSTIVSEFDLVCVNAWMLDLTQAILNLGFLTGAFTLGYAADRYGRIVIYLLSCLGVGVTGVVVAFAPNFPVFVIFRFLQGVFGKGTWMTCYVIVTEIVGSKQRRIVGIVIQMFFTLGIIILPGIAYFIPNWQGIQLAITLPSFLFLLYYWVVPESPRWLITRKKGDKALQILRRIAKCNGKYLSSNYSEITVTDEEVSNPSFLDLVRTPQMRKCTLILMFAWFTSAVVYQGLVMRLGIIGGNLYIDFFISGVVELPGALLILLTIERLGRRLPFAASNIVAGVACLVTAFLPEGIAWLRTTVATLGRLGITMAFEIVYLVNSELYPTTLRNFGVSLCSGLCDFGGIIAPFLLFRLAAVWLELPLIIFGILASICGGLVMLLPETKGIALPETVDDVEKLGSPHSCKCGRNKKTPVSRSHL
# Description: SI4. Results of transporter substrate assays (SLC)
# Human Incubation Positive control substrate/ Control Special Incubation Assay […]
# (Cell line) at 37°C [min] [h] […]
# into transfected and control cells.
# Fold accumulation = UPTTRP
# PSMA-617 in SLC transporters.
# NA: not analyzed. Test substances were considered as substrates in case of fold accumulation values > 2 combined with inhibition values higher than 50%.
# 4.7 Organic cation transporter OCT3
# (HEK293-OCT3-LV) and control cells (HEK293-Mock-LV) applying 2- and 20-minute incubation periods, measured in SLC transporter substrate assay. […] Concentrations are nominal.
# Table S16: ([α,β-3H]Nal)Lu-PSMA-617-accumulation in OCT3 transporter-expressing (HEK293-OCT3-LV) and control […]
# Conditions Accumulation (pmol/mg protein)
# Compound Nominal In OCT3 Fold concentration Minutes transporter In control Active accumulation
# [µM] expressing cells transport
# Positive control (accumulation in cpm)
# MPP +: 1-methyl -4-phenylpyridinium.
# [4] = 0.03 µM nominal + Probenecid 300 µM
# [5] = 0.30 µM nominal + Probenecid 300 µM
# [6] = 0.03 µM nominal + Benzbromarone 300 µM
# [7] = 0.30 µM nominal + Benzbromarone 300 µM
compound,measurement,setting,value
"[3H]C(c1ccc2ccccc2c1)C([3H])(NC(=O)C1CCC(CNC(=O)CN2CCN(CC(=O)[O-])CCN(CC(=O)[O-])CCN(CC(=O)[O-])CC2)CC1)C(=O)NCCCCC(NC(=O)NC(CCC(=O)O)C(=O)O)C(=O)O.[Lu+3] (stereo not drawn) [([α,β-^3H]Nal)Lu-PSMA-617]",Accumulation in OAT1 transporter expressing cells,[1]; [4],0.04 ± 0.00 pmol/mg protein
same,Accumulation in control cells,[1]; [4],0.03 ± 0.00 pmol/mg protein
same,"Accumulation, active transport",[1]; [4],0.00 ± 0.00 pmol/mg protein
same,Fold accumulation,[1]; [4],1.10
same,Accumulation in OAT1 transporter expressing cells,"[1]; 0.03 µM nominal, no inhibitor",0.06 ± 0.01 pmol/mg protein
same,Accumulation in control cells,"[1]; 0.03 µM nominal, no inhibitor",0.05 ± 0.01 pmol/mg protein
same,"Accumulation, active transport","[1]; 0.03 µM nominal, no inhibitor",0.01 ± 0.01 pmol/mg protein
same,Fold accumulation,"[1]; 0.03 µM nominal, no inhibitor",1.17
same,Accumulation in OAT1 transporter expressing cells,[1]; [5],0.62 ± 0.13 pmol/mg protein
same,Accumulation in control cells,[1]; [5],0.44 ± 0.10 pmol/mg protein
same,"Accumulation, active transport",[1]; [5],0.18 ± 0.16 pmol/mg protein
same,Fold accumulation,[1]; [5],1.42
same,Accumulation in OAT1 transporter expressing cells,"[1]; 0.30 µM nominal, no inhibitor",0.36 ± 0.02 pmol/mg protein
same,Accumulation in control cells,"[1]; 0.30 µM nominal, no inhibitor",0.34 ± 0.06 pmol/mg protein
same,"Accumulation, active transport","[1]; 0.30 µM nominal, no inhibitor",0.01 ± 0.06 pmol/mg protein
same,Fold accumulation,"[1]; 0.30 µM nominal, no inhibitor",1.04
same,"Max. transporter-specific fold accumulation, without inhibitor",[1]; 0.03 µM,1.17
same,Uptake via transporter (OAT1),[1]; absence and presence of probenecid,not taken up
same,"Max. transporter-specific fold accumulation, with inhibitor","[1]; Probenecid, 0.03 µM",1.10
same,Accumulation in OAT4 transporter expressing cells,[2]; [6],0.03 ± 0.01 pmol/mg protein
same,Accumulation in control cells,[2]; [6],0.02 ± 0.00 pmol/mg protein
same,"Accumulation, active transport",[2]; [6],0.01 ± 0.01 pmol/mg protein
same,Fold accumulation,[2]; [6],1.47
same,Accumulation in OAT4 transporter expressing cells,"[2]; 0.03 µM nominal, no inhibitor",0.04 ± 0.01 pmol/mg protein
same,Accumulation in control cells,"[2]; 0.03 µM nominal, no inhibitor",0.03 ± 0.00 pmol/mg protein
same,"Accumulation, active transport","[2]; 0.03 µM nominal, no inhibitor",0.01 ± 0.01 pmol/mg protein
same,Fold accumulation,"[2]; 0.03 µM nominal, no inhibitor",1.22
same,Accumulation in OAT4 transporter expressing cells,[2]; [7],0.40 ± 0.12 pmol/mg protein
same,Accumulation in control cells,[2]; [7],0.49 ± 0.14 pmol/mg protein
same,"Accumulation, active transport",[2]; [7],-0.09 ± 0.18 pmol/mg protein
same,Fold accumulation,[2]; [7],0.81
same,Accumulation in OAT4 transporter expressing cells,"[2]; 0.30 µM nominal, no inhibitor",0.35 ± 0.11 pmol/mg protein
same,Accumulation in control cells,"[2]; 0.30 µM nominal, no inhibitor",0.22 ± 0.05 pmol/mg protein
same,"Accumulation, active transport","[2]; 0.30 µM nominal, no inhibitor",0.13 ± 0.12 pmol/mg protein
same,Fold accumulation,"[2]; 0.30 µM nominal, no inhibitor",1.58
same,"Max. transporter-specific fold accumulation, without inhibitor",[2]; 0.3 µM,1.58
same,Uptake via transporter (OAT4),[2]; absence and presence of benzbromarone,not taken up
same,"Max. transporter-specific fold accumulation, with inhibitor","[2]; Benzbromarone, 0.3 µM",0.81
same,Accumulation in OCT3 transporter expressing cells,"[3]; 0.03 µM nominal, 2 min",0.026 ± 0.005 pmol/mg protein
same,Accumulation in control cells,"[3]; 0.03 µM nominal, 2 min",0.022 ± 0.002 pmol/mg protein
same,"Accumulation, active transport","[3]; 0.03 µM nominal, 2 min",0.003 ± 0.005 pmol/mg protein
same,Fold accumulation,"[3]; 0.03 µM nominal, 2 min",1.15
same,Accumulation in OCT3 transporter expressing cells,"[3]; 0.03 µM nominal, 20 min",0.041 ± 0.004 pmol/mg protein
same,Accumulation in control cells,"[3]; 0.03 µM nominal, 20 min",0.032 ± 0.005 pmol/mg protein
same,"Accumulation, active transport","[3]; 0.03 µM nominal, 20 min",0.009 ± 0.006 pmol/mg protein
same,Fold accumulation,"[3]; 0.03 µM nominal, 20 min",1.29
same,Accumulation in OCT3 transporter expressing cells,"[3]; 0.30 µM nominal, 2 min",0.351 ± 0.047 pmol/mg protein
same,Accumulation in control cells,"[3]; 0.30 µM nominal, 2 min",0.277 ± 0.047 pmol/mg protein
same,"Accumulation, active transport","[3]; 0.30 µM nominal, 2 min",0.074 ± 0.067 pmol/mg protein
same,Fold accumulation,"[3]; 0.30 µM nominal, 2 min",1.27
same,Accumulation in OCT3 transporter expressing cells,"[3]; 0.30 µM nominal, 20 min",0.446 ± 0.098 pmol/mg protein
same,Accumulation in control cells,"[3]; 0.30 µM nominal, 20 min",0.332 ± 0.047 pmol/mg protein
same,"Accumulation, active transport","[3]; 0.30 µM nominal, 20 min",0.113 ± 0.109 pmol/mg protein
same,Fold accumulation,"[3]; 0.30 µM nominal, 20 min",1.34
same,Substrate assessment (OCT3),"[3]; 0.03, 0.30 µM, 2, 20 min",no in vitro substrate
same,"Max. transporter-specific fold accumulation, without inhibitor","[3]; 20 min, 0.3 µM",1.34
